Data taken from patent US8277839B2, “Oral pharmaceutical composition of anilinopyrimidine, preparation and use thereof” (Ares Trading S.A., priority 2006, dated 2012).
≈ marks a conversion by molar mass, not a printed value.

Key:
[1] = visual solubility test (apparent solubility in different excipients); type: physicochemical; conditions: for solubility: thermodynamic from solid
Experimental: Subsequently in order to analyze the solubility of the anilinopyrimidine of Formula (I) and to identify the preferred excipients, ten solutions of batch FD050007 and ten solution of the starting batch 61569-02 were prepared and analized with a visual solubility test.
A data summary for the anilinopyrimidine derivative of Formula (I) apparent solubility in different excipients is given in Table 2.

[2] = test system: primary fresh cells from Acute Myeloid Leukemia (AML) patients; conditions: most primary fresh cells from AML patients; cited from earlier work
[3] = in Cremophor EL (castor oil-ethylene oxide)
[4] = in Labrafil M1944CS (oleoyl macrogol glyceride)

solubility ([1]; HP-β-CD, aqueous with cosolvent or surfactant or cyclodextrin, in HP-β-CD) [mg/mL] | solubility ([1]; Labrasol (caprylocapryoyl macrogol glyceride), oil or lipid, in Labrasol (caprylocapryoyl macrogol glyceride)) [mg/mL] | solubility ([1]; Transcutol HP, organic solvent or mixture, in Transcutol HP) [mg/mL] | apparent solubility ([1]; in Capmul GMO-50) [mg/mL] | apparent solubility ([1]; in Capmul MCM C10 (glyceril monocaprate)) [mg/mL] | apparent solubility ([1]; in Capmul MCM-Lutrol E600 1:1) [mg/mL] | apparent solubility [1, 3] | apparent solubility [1, 4] | apparent solubility ([1]; in Lutrol E600 (PEG 600)) [mg/mL] | apparent solubility ([1]; in Vitamin E TPGS) | solubility ([1]; Capmul GMO-50, oil or lipid, in Capmul GMO-50) [mg/mL] | solubility ([1]; Capmul MCM C10 (glyceril monocaprate), oil or lipid, in Capmul MCM C10 (glyceril monocaprate)) [mg/mL] | solubility ([1]; Capmul MCM-Lutrol E600 1:1, organic solvent or mixture, in Capmul MCM-Lutrol E600 1:1) [mg/mL] | solubility ([1]; Lutrol E600 (PEG 600), organic solvent or mixture, in Lutrol E600 (PEG 600)) [mg/mL] | apparent solubility ([1]; in Labrasol (caprylocapryoyl macrogol glyceride)) | apparent solubility ([1]; in Transcutol HP) | solubility, milled versus starting batch ([1]; in particular in Capmul MCM C10, Lutrol E600 and Capmul MCM-Lutrol E600 1:1) | SMILES | cell death [2]
5.75 (≈ 13.2 mM) | 26.3 (≈ 60.3 mM) | 26.2 (≈ 60.1 mM) | 19.6 | 54 | 115 | Suspension | Suspension | 115 | Solid | – | – | – | – | – | – | – | CC(=O)N1CCN(C(=O)c2ccc(Nc3nccc(-c4ccc(Cl)cc4)n3)cc2)CC1 [FD050007, 1-(4{4-[4-(4-Chloro-phenyl)-pyrimidin-2-ylamino]-benzoyl}-piperazin-1-yl)-ethanone] | –
– | – | – | – | – | – | Suspension | Suspension | – | Solid | 20.2 | 59.5 | 115 | 104 | Suspension | Suspension | – | CC(=O)N1CCN(C(=O)c2ccc(Nc3nccc(-c4ccc(Cl)cc4)n3)cc2)CC1 [Formula 61569-02, 1-(4{4-[4-(4-Chloro-phenyl)-pyrimidin-2-ylamino]-benzoyl}-piperazin-1-yl)-ethanone] | –
– | – | – | – | – | – | – | – | – | – | – | – | – | – | – | – | better solubility when milled | CC(=O)N1CCN(C(=O)c2ccc(Nc3nccc(-c4ccc(Cl)cc4)n3)cc2)CC1 [Formula (I), 1-(4{4-[4-(4-Chloro-phenyl)-pyrimidin-2-ylamino]-benzoyl}-piperazin-1-yl)-ethanone] | induces cell death
